Here are results for eleven molecules from patent US20230295197A1, “STAT5 and STAT6 Degraders and Uses Thereof” (REGENTS OF THE UNIVERSITY OF MICHICAN, priority 2022, published 2023).

Where two headings read alike, the source gives them in different places.

For the experiment, the target named is T1, STAT6 (Homo sapiens, UniProt P42226).
T1 construct: endogenous in cells; host or cells: MOLM-16, KU-812, SKNO1, MB231, L1236
T1 sequence (P42226 1-847): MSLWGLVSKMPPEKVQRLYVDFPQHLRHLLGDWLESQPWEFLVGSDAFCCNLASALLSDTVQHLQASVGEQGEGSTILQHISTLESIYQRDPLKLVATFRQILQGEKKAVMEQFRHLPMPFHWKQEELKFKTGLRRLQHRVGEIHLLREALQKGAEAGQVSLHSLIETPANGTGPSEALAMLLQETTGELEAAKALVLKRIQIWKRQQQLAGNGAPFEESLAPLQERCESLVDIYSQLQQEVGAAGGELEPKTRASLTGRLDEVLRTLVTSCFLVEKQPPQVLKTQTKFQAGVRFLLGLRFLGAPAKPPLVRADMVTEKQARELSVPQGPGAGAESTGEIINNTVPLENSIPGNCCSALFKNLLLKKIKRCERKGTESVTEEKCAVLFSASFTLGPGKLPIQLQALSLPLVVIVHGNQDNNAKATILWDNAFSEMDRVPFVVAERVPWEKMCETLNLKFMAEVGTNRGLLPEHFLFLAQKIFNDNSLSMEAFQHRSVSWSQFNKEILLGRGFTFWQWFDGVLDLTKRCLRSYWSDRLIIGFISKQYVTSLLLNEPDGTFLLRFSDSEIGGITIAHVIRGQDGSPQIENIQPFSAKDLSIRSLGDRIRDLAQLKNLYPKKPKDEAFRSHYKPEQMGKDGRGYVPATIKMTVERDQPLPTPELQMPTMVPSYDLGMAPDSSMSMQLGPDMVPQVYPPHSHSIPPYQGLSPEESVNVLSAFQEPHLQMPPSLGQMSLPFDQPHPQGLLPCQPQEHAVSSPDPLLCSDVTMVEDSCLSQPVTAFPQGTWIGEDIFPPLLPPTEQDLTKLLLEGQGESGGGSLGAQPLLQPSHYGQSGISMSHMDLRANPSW
The experiment can be described thus: Immunoblotting (Western blot) analysis of STAT6 degradation efficiency of degraders in treated cells. It is filed as cell-based. The procedure, abridged: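 Cells (~1 million per point) treated with compounds at indicated concentrations and times, lysed in RIPA with protease/phosphatase inhibitors; 20-40 μg protein run on SDS-PAGE and blotted to PVDF. STAT6 or STAT5 rabbit mAbs with GAPDH loading control, IRDye secondaries; near-infrared fluorescence scan, band intensity quantified.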
In general terms: A western blot detects proteins with antibodies after separation by electrophoresis.

[1] abbreviates: L1236 cells, read-out: DC50 S6 L1236.
[2] abbreviates: MOLM-16 cells, class symbols, read-out: DC50 S6 MOLM-16.
Setting [3] is: MOLM-16 cells, numeric bound, read-out: DC50 S6 MOLM-16.

A word on the DC50: it is the concentration giving 50% degradation.

`Cc1ncsc1-c1ccc([C@H](C)NC(=O)[C@@H]2C[C@@H](O)CN2C(=O)[C@@H](NC(=O)CCCCCCCCNC(=O)CO[C@H]2C[C@@H](C(=O)N3CCO[C@H](c4ccccc4)C3)N(C(=O)[C@@H](NC(=O)c3cc4cc(C(F)(F)P(=O)(O)O)ccc4s3)C(C)(C)C)C2)C(C)(C)C)cc1` [Compound 432, (difluoro(2-(((S)-1-((2S,4S)-4-(2-((9-(((S)-1-((2S,4R)-4-hydroxy-2-(((S)-1-(4-(4-methylthiazol-5-yl)phenyl)ethyl)carbamoyl)pyrrolidin-1-yl)-3,3-dimethyl-1-oxobutan-2-yl)amino)-9-oxononyl)amino)-2-oxoethoxy)-2-((R)-2-phenylmorpholine-4-carbonyl)pyrrolidin-1-yl)-3,3-dimethyl-1-oxobutan-2-yl)carbamoyl)benzo[b]thiophen-5-yl)methyl)phosphonic acid]: the DC50 by setting is: under setting [1], more than 10 µM; under setting [2], more than 10 µM.

For the molecule `CC(C)(C)[C@H](NC(=O)c1cc2cc(C(F)(F)P(=O)(O)O)ccc2s1)C(=O)N1C[C@@H](OCC(=O)NCCCCCCCCC#Cc2ccc3c(c2)C(=O)N(C2CCC(=O)NC2=O)C3=O)C[C@H]1C(=O)N1CCO[C@H](c2ccccc2)C1` (stereo partly drawn) [Compound 490, ((2-(((2S)-1-((2S,4S)-4-(2-((10-(2-(2,6-dioxopiperidin-3-yl)-1,3-dioxoisoindolin-5-yl)dec-9-yn-1-yl)amino)-2-oxoethoxy)-2-((R)-2-phenylmorpholine-4-carbonyl)pyrrolidin-1-yl)-3,3-dimethyl-1-oxobutan-2-yl)carbamoyl)benzo[b]thiophen-5-yl)difluoromethyl)phosphonic acid], the DC50 under setting [2] is more than 10 µM.

Regarding `Cc1ncsc1-c1ccc([C@H](C)NC(=O)[C@@H]2C[C@@H](O)CN2C(=O)[C@@H](NC(=O)CCNC(=O)CC(=O)N2CCN(C(=O)[C@@H](NC(=O)c3cc4cc(C(F)(F)P(=O)(O)O)ccc4s3)C(C)(C)C)[C@H](C(=O)N3CCC[C@H](c4ccccc4)C3)C2)C(C)(C)C)cc1` [Compound 453, (difluoro(2-(((S)-1-((S)-4-(3-((3-(((S)-1-((2S,4R)-4-hydroxy-2-(((S)-1-(4-(4-methylthiazol-5-yl)phenyl)ethyl)carbamoyl)pyrrolidin-1-yl)-3,3-dimethyl-1-oxobutan-2-yl)amino)-3-oxopropyl)amino)-3-oxopropanoyl)-2-((R)-3-phenylpiperidine-1-carbonyl)piperazin-1-yl)-3,3-dimethyl-1-oxobutan-2-yl)carbamoyl)benzo[b]thiophen-5-yl)methyl)phosphonic acid], the DC50 by setting is: under setting [1], more than 10 µM; under setting [2], more than 10 µM.

Regarding `CC(C)(C)[C@H](NC(=O)c1cc2cc(C(F)(F)P(=O)(O)O)ccc2s1)C(=O)N1C[C@@H](OCC(=O)NCCCCCC#Cc2cccc3c2C(=O)N(C2CCC(=O)NC2=O)C3=O)C[C@H]1C(=O)N1CCC[C@H](c2ccccc2)C1` (stereo partly drawn) [Compound 501, ((2-(((2S)-1-((2S,4S)-4-(2-((7-(2-(2,6-dioxopiperidin-3-yl)-1,3-dioxoisoindolin-4-yl)hept-6-yn-1-yl)amino)-2-oxoethoxy)-2-((R)-3-phenylpiperidine-1-carbonyl)pyrrolidin-1-yl)-3,3-dimethyl-1-oxobutan-2-yl)carbamoyl)benzo[b]thiophen-5-yl)difluoromethyl)phosphonic acid], the DC50 under setting [2] is more than 10 µM.

On to `CC(C)(C)[C@H](NC(=O)c1cc2cc(C(F)(F)P(=O)(O)O)ccc2s1)C(=O)N1C[C@@H](OCCN2CCC(C#Cc3cccc4c3CN(C3CCC(=O)NC3=O)C4=O)CC2)C[C@H]1C(=O)N1CCO[C@H](c2ccccc2)C1` (stereo partly drawn) [Compound 604, ((2-(((2S)-1-((2S,4S)-4-(2-(4-((2-(2,6-dioxopiperidin-3-yl)-1-oxoisoindolin-4-yl)ethynyl)piperidin-1-yl)ethoxy)-2-((R)-2-phenylmorpholine-4-carbonyl)pyrrolidin-1-yl)-3,3-dimethyl-1-oxobutan-2-yl)carbamoyl)benzo[b]thiophen-5-yl)difluoromethyl)phosphonic acid], for which, under setting [3], the DC50 was more than 0.3 µM.

As to `CC(C)(C)[C@H](NC(=O)c1cc2cc(C(F)(F)P(=O)(O)O)ccc2s1)C(=O)N1C[C@@H](OCCCCCNc2cccc3c2CN(C2CCC(=O)NC2=O)C3=O)C[C@H]1C(=O)N1CCO[C@H](c2ccccc2)C1` (stereo partly drawn) [Compound 598, ((2-(((2S)-1-((2S,4S)-4-((5-((2-(2,6-dioxopiperidin-3-yl)-1-oxoisoindolin-4-yl)amino)pentyl)oxy)-2-((R)-2-phenylmorpholine-4-carbonyl)pyrrolidin-1-yl)-3,3-dimethyl-1-oxobutan-2-yl)carbamoyl)benzo[b]thiophen-5-yl)difluoromethyl)phosphonic acid], under setting [3], the DC50 was more than 0.3 µM.

On to `CC(C)(C)[C@H](NC(=O)c1cc2cc(C(F)(F)P(=O)(O)O)ccc2s1)C(=O)N1C[C@@H](OCC(=O)NCCCCCCCCCC#Cc2cccc3c2C(=O)N(C2CCC(=O)NC2=O)C3=O)C[C@H]1C(=O)N1CCC[C@H](c2ccccc2)C1` (stereo partly drawn) [Compound 505, ((2-(((2S)-1-((2S,4S)-4-(2-((11-(2-(2,6-dioxopiperidin-3-yl)-1,3-dioxoisoindolin-4-yl)undec-10-yn-1-yl)amino)-2-oxoethoxy)-2-((R)-3-phenylpiperidine-1-carbonyl)pyrrolidin-1-yl)-3,3-dimethyl-1-oxobutan-2-yl)carbamoyl)benzo[b]thiophen-5-yl)difluoromethyl)phosphonic acid], for which, under setting [2], the DC50 is more than 10 µM.

In the case of `CC(C)(C)[C@H](NC(=O)c1cc2cc(C(F)(F)P(=O)(O)O)ccc2s1)C(=O)N1C[C@@H](OCC(=O)NCCCCC#Cc2cccc3c2C(=O)N(C2CCC(=O)NC2=O)C3=O)C[C@H]1C(=O)N1CCC[C@H](c2ccccc2)C1` (stereo partly drawn) [Compound 499, ((2-(((2S)-1-((2S,4S)-4-(2-((6-(2-(2,6-dioxopiperidin-3-yl)-1,3-dioxoisoindolin-4-yl)hex-5-yn-1-yl)amino)-2-oxoethoxy)-2-((R)-3-phenylpiperidine-1-carbonyl)pyrrolidin-1-yl)-3,3-dimethyl-1-oxobutan-2-yl)carbamoyl)benzo[b]thiophen-5-yl)difluoromethyl)phosphonic acid], the DC50 under setting [2] was more than 10 µM.

In the case of `Cc1ncsc1-c1ccc([C@H](C)NC(=O)[C@@H]2C[C@@H](O)CN2C(=O)[C@H](NC(=O)CNC(=O)CO[C@H]2C[C@@H](C(=O)N3CCO[C@H](c4ccccc4)C3)N(C(=O)[C@@H](NC(=O)c3cc4cc(C(F)(F)P(=O)(O)O)ccc4s3)C(C)(C)C)C2)C(C)(C)C)cc1` [Compound 425, (difluoro(2-(((S)-1-((2S,4S)-4-(2-((2-(((R)-1-((2S,4R)-4-hydroxy-2-(((S)-1-(4-(4-methylthiazol-5-yl)phenyl)ethyl)carbamoyl)pyrrolidin-1-yl)-3,3-dimethyl-1-oxobutan-2-yl)amino)-2-oxoethyl)amino)-2-oxoethoxy)-2-((R)-2-phenylmorpholine-4-carbonyl)pyrrolidin-1-yl)-3,3-dimethyl-1-oxobutan-2-yl)carbamoyl)benzo[b]thiophen-5-yl)methyl)phosphonic acid], the DC50 runs as follows: under setting [1], more than 10 µM; under setting [2], more than 10 µM.

For the molecule `CC(C)(C)[C@H](NC(=O)c1cc2cc(C(F)(F)P(=O)(O)O)ccc2s1)C(=O)N1C[C@@H](OCCCCCCCCC#Cc2cccc3c2CN(C2CCC(=O)NC2=O)C3=O)C[C@H]1C(=O)N1CCO[C@H](c2ccccc2)C1` (stereo partly drawn) [Compound 586, ((2-(((2S)-1-((2S,4S)-4-((10-(2-(2,6-dioxopiperidin-3-yl)-1-oxoisoindolin-4-yl)dec-9-yn-1-yl)oxy)-2-((R)-2-phenylmorpholine-4-carbonyl)pyrrolidin-1-yl)-3,3-dimethyl-1-oxobutan-2-yl)carbamoyl)benzo[b]thiophen-5-yl)difluoromethyl)phosphonic acid], the DC50 runs as follows: under setting [1], 1 to 10 µM; under setting [2], less than 0.1 µM.

With `CC(C)(C)[C@H](NC(=O)c1cc2cc(C(F)(F)P(=O)(O)O)ccc2s1)C(=O)N1C[C@@H](OCC(=O)NCC#Cc2cccc3c2C(=O)N(C2CCC(=O)NC2=O)C3=O)C[C@H]1C(=O)N1CCC[C@H](c2ccccc2)C1` (stereo partly drawn) [Compound 493, ((2-(((2S)-1-((2S,4S)-4-(2-((3-(2-(2,6-dioxopiperidin-3-yl)-1,3-dioxoisoindolin-4-yl)prop-2-yn-1-yl)amino)-2-oxoethoxy)-2-((R)-3-phenylpiperidine-1-carbonyl)pyrrolidin-1-yl)-3,3-dimethyl-1-oxobutan-2-yl)carbamoyl)benzo[b]thiophen-5-yl)difluoromethyl)phosphonic acid], the DC50 under setting [2] is more than 10 µM.
